According to the NIST ThermoML archive (doi:10.1016/j.jct.2012.02.023):
Numbers after ± are expanded uncertainties.

details: 293.15 K; 101.33 kPa; Liquid; Sing-around technique in a fixed-path interferometer

SMILES | speed of sound
CO [methanol] | 1118.8 ± 1.2 m/s
CCCC[n+]1cccc(C)c1.F[B-](F)(F)F [1-butyl-3-methylpyridinium tetrafluoroborate] | 1598.5 ± 1.6 m/s
CCCC[n+]1ccc(C)cc1.F[B-](F)(F)F [1-butyl-4-methylpyridinium tetrafluoroborate] | 1611.8 ± 1.6 m/s
CCO [ethanol] | 1160.1 ± 1.2 m/s

same assay, conditions: 293.15 K; 101.33 kPa; Liquid; Vibrating tube method

SMILES | mass density
CO [methanol] | 791.243 ± 0.12 kg/m3
CCCC[n+]1cccc(C)c1.F[B-](F)(F)F [1-butyl-3-methylpyridinium tetrafluoroborate] | 1185.65 ± 0.38 kg/m3
CCCC[n+]1ccc(C)cc1.F[B-](F)(F)F [1-butyl-4-methylpyridinium tetrafluoroborate] | 1185.92 ± 0.38 kg/m3
CCO [ethanol] | 789.481 ± 0.15 kg/m3

same assay, conditions: 303.15 K; 101.33 kPa; Liquid; Sing-around technique in a fixed-path interferometer

SMILES | speed of sound
CO [methanol] | 1086 ± 1.1 m/s
CCCC[n+]1cccc(C)c1.F[B-](F)(F)F [1-butyl-3-methylpyridinium tetrafluoroborate] | 1573.8 ± 1.6 m/s
CCCC[n+]1ccc(C)cc1.F[B-](F)(F)F [1-butyl-4-methylpyridinium tetrafluoroborate] | 1586.7 ± 1.6 m/s
CCO [ethanol] | 1127.2 ± 1.2 m/s

same assay, conditions: 303.15 K; 101.33 kPa; Liquid; Vibrating tube method

SMILES | mass density
CO [methanol] | 781.813 ± 0.13 kg/m3
CCCC[n+]1cccc(C)c1.F[B-](F)(F)F [1-butyl-3-methylpyridinium tetrafluoroborate] | 1178.86 ± 0.38 kg/m3
CCCC[n+]1ccc(C)cc1.F[B-](F)(F)F [1-butyl-4-methylpyridinium tetrafluoroborate] | 1179.12 ± 0.38 kg/m3
CCO [ethanol] | 781.302 ± 0.15 kg/m3

same assay, conditions: 303.15 K; Liquid; Closed cell (Static) method

SMILES | vapor or sublimation pressure
CO [methanol] | 21.93 ± 0.08 kPa
CCO [ethanol] | 10.47 ± 0.045 kPa

same assay, conditions: 313.15 K; 101.33 kPa; Liquid; Sing-around technique in a fixed-path interferometer

SMILES | speed of sound
CO [methanol] | 1053.5 ± 1.1 m/s
CCCC[n+]1cccc(C)c1.F[B-](F)(F)F [1-butyl-3-methylpyridinium tetrafluoroborate] | 1550.1 ± 1.6 m/s
CCCC[n+]1ccc(C)cc1.F[B-](F)(F)F [1-butyl-4-methylpyridinium tetrafluoroborate] | 1562.8 ± 1.6 m/s
CCO [ethanol] | 1093.6 ± 1.2 m/s

same assay, conditions: 313.15 K; 101.33 kPa; Liquid; Vibrating tube method

SMILES | mass density
CO [methanol] | 772.287 ± 0.13 kg/m3
CCCC[n+]1cccc(C)c1.F[B-](F)(F)F [1-butyl-3-methylpyridinium tetrafluoroborate] | 1172.11 ± 0.37 kg/m3
CCCC[n+]1ccc(C)cc1.F[B-](F)(F)F [1-butyl-4-methylpyridinium tetrafluoroborate] | 1172.12 ± 0.37 kg/m3
CCO [ethanol] | 772.569 ± 0.15 kg/m3

same assay, conditions: 323.15 K; 101.33 kPa; Liquid; Sing-around technique in a fixed-path interferometer

SMILES | speed of sound
CO [methanol] | 1021.5 ± 1.1 m/s
CCCC[n+]1cccc(C)c1.F[B-](F)(F)F [1-butyl-3-methylpyridinium tetrafluoroborate] | 1527 ± 1.6 m/s
CCCC[n+]1ccc(C)cc1.F[B-](F)(F)F [1-butyl-4-methylpyridinium tetrafluoroborate] | 1539.3 ± 1.6 m/s
CCO [ethanol] | 1060.4 ± 1.2 m/s

same assay, conditions: 323.15 K; 101.33 kPa; Liquid; Vibrating tube method

SMILES | mass density
CO [methanol] | 762.628 ± 0.14 kg/m3
CCCC[n+]1cccc(C)c1.F[B-](F)(F)F [1-butyl-3-methylpyridinium tetrafluoroborate] | 1165.37 ± 0.37 kg/m3
CCCC[n+]1ccc(C)cc1.F[B-](F)(F)F [1-butyl-4-methylpyridinium tetrafluoroborate] | 1165.52 ± 0.37 kg/m3
CCO [ethanol] | 763.647 ± 0.16 kg/m3

same assay, conditions: 323.15 K; Liquid; Closed cell (Static) method

SMILES | vapor or sublimation pressure
CO [methanol] | 55.78 ± 0.12 kPa
CCO [ethanol] | 29.57 ± 0.067 kPa
